Data: the NIST ThermoML archive (doi:10.1016/j.jct.2006.08.009)

Assay: mn = molality of the nth substance listed, in mol/kg
Settings: 350 kPa, Liquid; for apparent molar heat capacity: Extra sensitive DSC

OCC(O)CO [glycerol] + O
Settings	apparent molar heat capacity [J/K/mol]	mass density [kg/m3]
278.15 K, m1 = 0.02	210	1000.56
278.15 K, m1 = 0.05	208	1001.19
278.15 K, m1 = 0.1	208.3	1002.32
278.15 K, m1 = 0.2501	206.7	1005.96
278.15 K, m1 = 0.5002	206	1011.28
278.15 K, m1 = 1.001	203.2	1021.37
278.15 K, m1 = 2	200	1040.06
278.15 K, m1 = 3.003	192.1	1056.11
278.15 K, m1 = 4.999	196.4	1082.51
283.15 K, m1 = 0.02	220	1000.32
283.15 K, m1 = 0.05	219	1000.93
283.15 K, m1 = 0.1	219.7	1002.05
283.15 K, m1 = 0.2501	218.3	1005.34
283.15 K, m1 = 0.5002	217.4	1010.56
283.15 K, m1 = 1.001	215.1	1020.54
283.15 K, m1 = 2	212.1	1038.67
283.15 K, m1 = 3.003	206.8	1054.65
283.15 K, m1 = 4.999	207.4	1080.68
288.15 K, m1 = 0.02	229	999.7
288.15 K, m1 = 0.05	227	1000.3
288.15 K, m1 = 0.1	227.7	1001.41
288.15 K, m1 = 0.2501	226.4	1004.63
288.15 K, m1 = 0.5002	225.6	1009.79
288.15 K, m1 = 1.001	223.5	1019.64
288.15 K, m1 = 2	220.6	1037.48
288.15 K, m1 = 3.003	215.7	1053.13
288.15 K, m1 = 4.999	215.28	1078.92
293.15 K, m1 = 0.02	235	–
293.15 K, m1 = 0.05	233	–
293.15 K, m1 = 0.1	234	–
293.15 K, m1 = 0.2501	233	–
293.15 K, m1 = 0.5002	232.3	–
293.15 K, m1 = 1.001	230.4	–
293.15 K, m1 = 2	227.5	–
293.15 K, m1 = 3.003	222.75	–
293.15 K, m1 = 4.999	221.83	–
298.15 K, m1 = 0.02	240	997.59
298.15 K, m1 = 0.05	239	998.2
298.15 K, m1 = 0.1	239.7	999.29
298.15 K, m1 = 0.2501	238.6	1002.43
298.15 K, m1 = 0.5002	238	1007.48
298.15 K, m1 = 1.001	236.1	1017.07
298.15 K, m1 = 2	233.27	1034.46
298.15 K, m1 = 3.003	228.47	1049.73
298.15 K, m1 = 4.999	227.35	1074.96
303.15 K, m1 = 0.02	245	–
303.15 K, m1 = 0.05	244	–
303.15 K, m1 = 0.1	244.7	–
303.15 K, m1 = 0.2501	243.6	–
303.15 K, m1 = 0.5002	243	–
303.15 K, m1 = 1.001	241.1	–
303.15 K, m1 = 2	238.33	–
303.15 K, m1 = 3.003	233.46	–
303.15 K, m1 = 4.999	232.27	–
308.15 K, m1 = 0.02	249	994.55
308.15 K, m1 = 0.05	248.4	995.16
308.15 K, m1 = 0.1	249	996.23
308.15 K, m1 = 0.2501	247.9	999.33
308.15 K, m1 = 0.5002	247.4	1004.29
308.15 K, m1 = 1.001	245.5	1013.67
308.15 K, m1 = 2	242.76	1030.71
308.15 K, m1 = 3.003	237.83	1045.67
308.15 K, m1 = 4.999	236.6	1070.41
313.15 K, m1 = 0.02	253	–
313.15 K, m1 = 0.05	252.1	–
313.15 K, m1 = 0.1	252.9	–
313.15 K, m1 = 0.2501	251.9	–
313.15 K, m1 = 0.5002	251.3	–
313.15 K, m1 = 1.001	249.4	–
313.15 K, m1 = 2	246.75	–
313.15 K, m1 = 3.003	241.83	–
313.15 K, m1 = 4.999	240.56	–
318.15 K, m1 = 0.02	257	990.73
318.15 K, m1 = 0.05	255.7	991.32
318.15 K, m1 = 0.1	256.3	992.37
318.15 K, m1 = 0.2501	255.4	995.42
318.15 K, m1 = 0.5002	254.8	1000.34
318.15 K, m1 = 1.001	252.98	1009.55
318.15 K, m1 = 2	250.33	1026.3
318.15 K, m1 = 3.003	245.4	1041.09
318.15 K, m1 = 4.999	244.12	1065.4
323.15 K, m1 = 0.02	260	–
323.15 K, m1 = 0.05	258.8	–
323.15 K, m1 = 0.1	259.4	–
323.15 K, m1 = 0.2501	258.6	–
323.15 K, m1 = 0.5002	258	–
323.15 K, m1 = 1.001	256.23	–
323.15 K, m1 = 2	253.61	–
323.15 K, m1 = 3.003	248.72	–
323.15 K, m1 = 4.999	247.42	–
328.15 K, m1 = 0.02	263	986.19
328.15 K, m1 = 0.05	261.7	986.78
328.15 K, m1 = 0.1	262.3	987.77
328.15 K, m1 = 0.2501	261.5	990.83
328.15 K, m1 = 0.5002	261	995.67
328.15 K, m1 = 1.001	259.22	1004.79
328.15 K, m1 = 2	256.62	1021.31
328.15 K, m1 = 3.003	251.8	1035.9
328.15 K, m1 = 4.999	250.48	1059.9
333.15 K, m1 = 0.02	266	–
333.15 K, m1 = 0.05	264.5	–
333.15 K, m1 = 0.1	265	–
333.15 K, m1 = 0.2501	264.3	–
333.15 K, m1 = 0.5002	263.72	–
333.15 K, m1 = 1.001	262	–
333.15 K, m1 = 2	259.44	–
333.15 K, m1 = 3.003	254.69	–
333.15 K, m1 = 4.999	253.36	–
338.15 K, m1 = 0.02	268.5	981.05
338.15 K, m1 = 0.05	267	981.63
338.15 K, m1 = 0.1	267.6	982.65
338.15 K, m1 = 0.2501	266.8	985.63
338.15 K, m1 = 0.5002	266.28	990.4
338.15 K, m1 = 1.001	264.6	999.46
338.15 K, m1 = 2	262.07	1015.84
338.15 K, m1 = 3.003	257.43	1030.29
338.15 K, m1 = 4.999	256.04	1054
343.15 K, m1 = 0.02	270.6	–
343.15 K, m1 = 0.05	269.2	–
343.15 K, m1 = 0.1	269.8	–
343.15 K, m1 = 0.2501	269.15	–
343.15 K, m1 = 0.5002	268.63	–
343.15 K, m1 = 1.001	266.97	–
343.15 K, m1 = 2	264.48	–
343.15 K, m1 = 3.003	259.94	–
343.15 K, m1 = 4.999	258.51	–
348.15 K, m1 = 0.02	272.9	975.36
348.15 K, m1 = 0.05	271.3	975.93
348.15 K, m1 = 0.1	271.9	976.93
348.15 K, m1 = 0.2501	271.31	979.9
348.15 K, m1 = 0.5002	270.82	984.63
348.15 K, m1 = 1.001	269.16	993.59
348.15 K, m1 = 2	266.71	1009.84
348.15 K, m1 = 3.003	262.29	1024.18
348.15 K, m1 = 4.999	260.82	1047.69
353.15 K, m1 = 0.02	274.8	–
353.15 K, m1 = 0.05	273.1	–
353.15 K, m1 = 0.1	273.9	–
353.15 K, m1 = 0.2501	273.26	–
353.15 K, m1 = 0.5002	272.82	–
353.15 K, m1 = 1.001	271.17	–
353.15 K, m1 = 2	268.75	–
353.15 K, m1 = 3.003	264.53	–
353.15 K, m1 = 4.999	262.96	–
358.15 K, m1 = 0.02	276.3	969.12
358.15 K, m1 = 0.05	274.7	969.7
358.15 K, m1 = 0.1	275.6	970.69
358.15 K, m1 = 0.2501	274.92	973.64
358.15 K, m1 = 0.5002	274.47	978.33
358.15 K, m1 = 1.001	272.82	987.24
358.15 K, m1 = 2	270.44	1003.38
358.15 K, m1 = 3.003	266.6	1017.63
358.15 K, m1 = 4.999	264.75	1041.02
363.15 K, m1 = 0.02	277.1	–
363.15 K, m1 = 0.05	275.5	–
363.15 K, m1 = 0.1	276.5	–
363.15 K, m1 = 0.2501	275.65	–
363.15 K, m1 = 0.5002	275.17	–
363.15 K, m1 = 1.001	273.45	–
363.15 K, m1 = 2	271.04	–
363.15 K, m1 = 3.003	268.61	–
363.15 K, m1 = 4.999	265.49	–
368.15 K, m1 = 0.02	–	962.42
368.15 K, m1 = 0.05	–	963
368.15 K, m1 = 0.1	–	963.94
368.15 K, m1 = 0.2501	–	966.88
368.15 K, m1 = 0.5002	–	971.55
368.15 K, m1 = 1.001	–	980.42
368.15 K, m1 = 2	–	996.47
368.15 K, m1 = 3.003	–	1010.68
368.15 K, m1 = 4.999	–	1033.93
